Each structure is given as a SMILES string. Starred links: 1 amine or outer side, 2 acyl side, 3 side chain; linkers in the order of their positions; H or OH if unused. Positions of bridges follow the written chain, without caps; N, C: chain ends. Non-standard residues stand in square brackets, D forms with d. Residues, ends and D or L forms follow the SMILES beside them. *: point of attachment. X1 = CC1(C)C(/C=C/C=C/C=C2\N(CCCS(=O)(=O)O)c3ccc(S(=O)(=O)O)cc3C2(C)CCCCCC(=O)*)=[N+](CCCS(=O)(=O)[O-])c2ccc(S(=O)(=O)O)cc21; Trp(5-F) = N[C@@H](Cc1c[nH]c2ccc(F)cc12)C(=O)O; mXylylene = c1cc(C[*:1])cc(C[*:2])c1; αMeP = C[C@@]1(C(=O)O)CCCN1; Mpa = O=C(O)CCS

Assay type in all cases: binding
In assay [1] the target is T1, PCSK9 (Homo sapiens, UniProt Q8NBP7).
T1 construct: Biotinylated PCSK9 was obtained commercially; purchased
T1 sequence (Q8NBP7 153-692): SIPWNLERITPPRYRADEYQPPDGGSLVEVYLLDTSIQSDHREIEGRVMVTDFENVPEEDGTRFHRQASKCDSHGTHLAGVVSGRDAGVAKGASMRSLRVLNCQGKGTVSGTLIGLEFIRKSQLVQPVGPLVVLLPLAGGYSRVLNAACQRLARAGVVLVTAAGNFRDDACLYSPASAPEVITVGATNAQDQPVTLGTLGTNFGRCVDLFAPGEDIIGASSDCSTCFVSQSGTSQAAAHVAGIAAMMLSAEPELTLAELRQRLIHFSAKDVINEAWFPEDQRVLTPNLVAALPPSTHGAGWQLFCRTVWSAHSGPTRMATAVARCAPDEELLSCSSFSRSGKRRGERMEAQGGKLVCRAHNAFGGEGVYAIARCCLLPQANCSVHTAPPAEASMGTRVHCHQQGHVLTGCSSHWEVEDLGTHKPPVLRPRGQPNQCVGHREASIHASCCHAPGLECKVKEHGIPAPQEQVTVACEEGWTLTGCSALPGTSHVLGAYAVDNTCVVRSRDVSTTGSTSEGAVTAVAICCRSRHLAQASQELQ
Briefly: PCSK9 Alexa FRET Plus TR-FRET assay (displacement of AlexaFluor647 tagged cyclic peptide Reagent B). The note with it: for Ki: Ki Plus, 0.5 nM biotinylated PCSK9, 960 nM AF cyclic peptide Reagent B, Ki calculated from IC50 and KD of AF peptide. On the procedure: (§1) The following is a description of the assays used to determine activity of compounds of the invention, and any comparator compounds reported, toward PCSK9 antagonism. Biotinylated PCSK9 was obtained commercially.
A solution containing 1 nM biotinylated PCSK9+2.5 nM Lance Streptavidin Europium (Strep-Eu) is made in 50 mM HEPES pH 7.4, 0.15 M NaCl, 5 mM CaCl2, 0.01% BSA, and 0.01% Surfactant P20. A separate solution containing 1920 nM of the AlexaFluor tagged cyclic peptide is made in the same buffer system. An Echo is used to transfer 0.075 ul of compound plus 0.675 ul of DMSO to each well of an assay plate followed by the addition of 15 ul of PCSK9+Stept-Eu and 15 ul of AF peptide. The final assay volume is 30.750 ul containing 0.5 nM PCSK9, 1.25 nM Strep-Eu, and 960 nM AF cyclic peptide. The reaction is incubated at room temperature for at least two hours prior to fluorescence measurements using an Envision Multilabel Reader. IC50 values are determined by fitting data to a sigmoidal dose-response curve using nonlinear regression. Ki is then calculated from the IC50 and the KD of AF cyclic peptide. Counts (B-counts) of the europium-labeled PCSK9 are followed to observe if compounds are adversely affecting PCSK9. A fall off of the B-counts is likely indicates a false positive of inhibition. Data from this procedure is reported as “P=‘numerical value’ (nanomolar)”
(§2) Activity data obtained by one or both of the above-described procedures is reported for selected example compounds of the invention in the following format: Example No.: A (standard TR Fret)=‘numerical value’; P (Alexa Fret plus standard TR Fret)=‘numerical value’/, note that all values reported are nanomolar.

In assay [2] the target is T1, PCSK9. Briefly: PCSK9 Alexa FRET Ultra TR-FRET assay (displacement of AlexaFluor647 tagged cyclic peptide). The following applies: for Ki: Ki Ultra, 0.5 nM biotinylated PCSK9, 960 nM AF cyclic peptide, Ki calculated from IC50 and KD of AF peptide. On the procedure: as §1
A solution containing 1 nM biotinylated PCSK9+2.5 nM Lance Streptavidin Europium (Strep-Eu) is made in 50 mM HEPES pH 7.4, 0.15 M NaCl, 5 mM CaCl2, 0.01% BSA, and 0.01% Surfactant P20. A separate solution containing 1920 nM of the AlexaFluor tagged cyclic peptide is made in the same buffer system. An Echo is used to transfer 0.015 ul of compound plus 0.735 ul of DMSO to each well of an assay plate followed by the addition of 15 ul of PCSK9+Stept-Eu and 15 ul of AF peptide. The final assay volume is 30.750 ul containing 0.5 nM PCSK9, 1.25 nM Strep-Eu, and 960 nM AF cyclic peptide. The reaction is incubated at room temperature for at least two hours prior to fluorescence measurements using an Envision Multilabel Reader. IC50 values are determined by fitting data to a sigmoidal dose-response curve using nonlinear regression. Ki is then calculated from the IC50 and the KD of AF cyclic peptide. Counts (B-counts) of the europium-labeled PCSK9 are followed to observe if compounds are adversely affecting PCSK9. A fall off of the B-counts is likely indicates a false positive of inhibition. Data from this procedure is reported as “Ki Ultra=‘numerical value’ (data reported is nanomolar)”

The target in assay [3] is T1, PCSK9. Kind of assay: PCSK9 Alexa FRET Standard TR-FRET assay (displacement of AlexaFluor647 tagged cyclic peptide Reagent A). How it is done: as §1
Alexa FRET Standard TR-FRET
A solution containing 1 nM biotinylated PCSK9+2.5 nM Lance Streptavidin Europium (Strep-Eu) is made in 50 mM HEPES pH 7.4, 0.15 M NaCl, 5 mM CaCl2, 0.01% BSA, and 0.01% Surfactant P20. A separate solution containing 40 nM of the AlexaFluor tagged cyclic peptide is made in the same buffer system. An Echo is used to transfer 0.750 ul of compound to an assay plate followed by the addition of 15 ul of PCSK9+Stept-Eu and 15 ul of AF peptide. The final assay volume is 30.750 ul containing 0.5 nM PCSK9, 1.25 nM Strep-Eu, and 20 nM AF cyclic peptide. The reaction is incubated at room temperature for at least two hours prior to fluorescence measurements using an Envision Multilabel Reader. […] values are determined by fitting data to a sigmoidal dose-response curve using nonlinear regression. Ki is then calculated from the IC50 and the KD of AF cyclic peptide. Counts (B-counts) of the europium-labeled PCSK9 are followed to observe if compounds are adversely PCSK9. A fall off of the B-counts likely indicates a false positive of inhibition. Data from this procedure is reported as “A=‘numerical value’ (nanomolar)”
as §2

One may read the Ki as a measure of affinity in units of concentration, obtained from inhibition or displacement. In the case of `COc1ccc(C[C@@H]2NC(=O)[C@H]([C@@H](C)O)NC(=O)[C@@H]3[C@@H]4CCN3C(=O)[C@@H]3Cc5cn(c6ccc(F)cc56)CCCCCN(CCOc5ccc(cc5)CCNC(=O)[C@]5(C)CCCN5C2=O)C(=O)CCC(=O)N[C@@H](C)C(=O)N[C@H](CNC(=O)CCCCC[N+](C)(C)C)C(=O)N[C@@H](Cc2cccc(c2)CNC(=O)CO4)C(=O)N3)cc1` [Ex-41], the results for the Ki in assay [1] and in assay [2] were 0.00697 nM and 0.00628 nM, respectively.
For `COc1ccc(C[C@@H]2NC(=O)[C@H]([C@@H](C)O)NC(=O)[C@@H]3[C@@H]4CCN3C(=O)[C@@H]3Cc5cn(c6ccc(F)cc56)CCCCCCN(Cc5cccc(c5)CCNC(=O)[C@]5(C)CCCN5C2=O)C(=O)CCC(=O)N[C@@H](C)C(=O)N[C@H](CNC(=O)CCCCC[N+](C)(C)C)C(=O)N[C@@H](Cc2cccc(c2)CNC(=O)CO4)C(=O)N3)cc1` [Ex-44], in that order: 0.0145 nM and 0.0219 nM.
With `COc1ccc(C[C@@H]2NC(=O)[C@H]([C@@H](C)O)NC(=O)[C@@H]3[C@@H]4CCN3C(=O)[C@@H]3Cc5cn(c6ccc(F)cc56)C/C=C/CC[C@@H](NC(=O)CCC(=O)N[C@@H](C)C(=O)N[C@H](CNC(=O)CCCCC[N+](C)(C)C)C(=O)N[C@@H](Cc5cccc(c5)CNC(=O)CO4)C(=O)N3)c3ccc(cc3)CCNC(=O)[C@]3(C)CCCN3C2=O)cc1` [Ex-47], the Ki was 0.0147 nM in assay [1] and 0.0119 nM in assay [2].
For `COc1ccc(C[C@@H]2NC(=O)[C@H]([C@@H](C)O)NC(=O)[C@@H]3C4CCN3C(=O)[C@@H]3Cc5cn(c6ccc(F)cc56)CCCCC[C@@H](NC(=O)CCC(=O)N[C@@H](C)C(=O)N[C@H](CNC(=O)CCOCCOCC[N+](C)(C)C)C(=O)N[C@@H](Cc5cccc(c5)CNC(=O)CO4)C(=O)N3)c3ccc(cc3)CCNC(=O)[C@]3(C)CCCN3C2=O)cc1` [Ex-48], in that order: 0.0117 nM and 0.0154 nM.
For `COc1ccc(C[C@@H]2NC(=O)[C@H]([C@@H](C)O)NC(=O)[C@@H]3[C@@H]4CCN3C(=O)[C@@H]3Cc5cn(c6ccc(F)cc56)CCCCOCc5cc(ccc5CNC(=O)CCC(=O)N[C@@H](C)C(=O)N[C@H](CNC(=O)CCCCC[N+](C)(C)C)C(=O)N[C@@H](Cc5cccc(c5)CNC(=O)CO4)C(=O)N3)CCNC(=O)[C@]3(C)CCCN3C2=O)cc1` [Ex-49], in that order: 0.00716 nM and 0.00414 nM.
Turning to `COc1ccc(C[C@@H]2NC(=O)[C@H]([C@@H](C)O)NC(=O)[C@@H]3[C@@H]4CCN3C(=O)[C@@H]3Cc5cn(c6ccc(F)cc56)CCCCCCN(Cc5ccc(cc5)CCNC(=O)[C@]5(C)CCCN5C2=O)C(=O)CCC(=O)N[C@@H](C)C(=O)N[C@H](CNC(=O)CCOCCOCCCN(C)C)C(=O)N[C@@H](Cc2cccc(c2)CNC(=O)CO4)C(=O)N3)cc1` [Ex-50], the Ki in assay [1] is 0.0105 nM; in assay [2], 0.00443 nM; in assay [3], less than 1.26 nM.
For `COc1ccc(C[C@@H]2NC(=O)[C@H]([C@@H](C)O)NC(=O)[C@@H]3[C@@H]4CCN3C(=O)[C@@H]3Cc5cn(c6ccc(F)cc56)C/C=C/CCCN(Cc5ccc(cc5)CCNC(=O)[C@]5(C)CCCN5C2=O)C(=O)CCC(=O)N[C@@H](C)C(=O)N[C@H](CN)C(=O)N[C@@H](Cc2cccc(c2)CNC(=O)CO4)C(=O)N3)cc1` [Ex-51] the same measures were less than 0.00558 nM, 0.00597 nM and less than 1.26 nM.
For `COc1ccc(C[C@@H]2NC(=O)[C@H]([C@@H](C)O)NC(=O)[C@@H]3[C@@H]4CCN3C(=O)[C@@H]3Cc5cn(c6ccc(F)cc56)C/C=C/CCCN(Cc5ccc(cc5)CCNC(=O)[C@]5(C)CCCN5C2=O)C(=O)CCC(=O)N[C@@H](C)C(=O)N[C@H](CNC(=O)CCOCCOCC[N+](C)(C)C)C(=O)N[C@@H](Cc2cccc(c2)CNC(=O)CO4)C(=O)N3)cc1` [Ex-52], in that order: less than 0.00558 nM, 0.00359 nM and less than 1.26 nM.
For `COc1ccc(C[C@@H]2NC(=O)[C@H]([C@@H](C)O)NC(=O)[C@@H]3[C@@H]4CCN3C(=O)[C@@H]3Cc5cn(c6ccc(F)cc56)C/C=C/COc5cc(ccc5CNC(=O)CCC(=O)N[C@@H](C)C(=O)N[C@H](CN)C(=O)N[C@@H](Cc5cccc(c5)CNC(=O)CO4)C(=O)N3)CCNC(=O)[C@]3(C)CCCN3C2=O)cc1` [Ex-53], in that order: 0.0963 nM, 0.215 nM and less than 1.26 nM.
As to `COc1ccc(C[C@@H]2NC(=O)[C@H]([C@@H](C)O)NC(=O)[C@@H]3[C@@H]4CCN3C(=O)[C@@H]3Cc5cn(c6ccc(F)cc56)CCCCOc5cc(ccc5CNC(=O)CCC(=O)N[C@@H](C)C(=O)N[C@H](CN)C(=O)N[C@@H](Cc5cccc(c5)CNC(=O)CO4)C(=O)N3)CCNC(=O)[C@]3(C)CCCN3C2=O)cc1` [Ex-54], the values for the Ki in assay [1], in assay [2] and in assay [3] were 0.367 nM, 0.484 nM and less than 1.26 nM, respectively.
Take `COc1ccc(C[C@@H]2NC(=O)[C@H]([C@@H](C)O)NC(=O)[C@@H]3[C@@H]4CCN3C(=O)[C@@H]3Cc5cn(c6ccc(F)cc56)CCCCCCN(Cc5ccc(cc5)CCNC(=O)[C@]5(C)CCCN5C2=O)C(=O)CCC(=O)N[C@@H](C)C(=O)N[C@H](CNC(=O)CCOCCCCC[N+](C)(C)C)C(=O)N[C@@H](Cc2cccc(c2)CNC(=O)CO4)C(=O)N3)cc1` [Ex-59]: the Ki in assay [1] was 0.00788 nM; in assay [2], 0.00496 nM.
For `COc1ccc(C[C@@H]2NC(=O)[C@H]([C@@H](C)O)NC(=O)[C@@H]3[C@@H]4CCN3C(=O)[C@@H]3Cc5cn(c6ccc(F)cc56)CCCCCCN(Cc5ccc(cc5)CCNC(=O)[C@]5(C)CCCN5C2=O)C(=O)CCC(=O)N[C@@H](C)C(=O)N[C@H](CNC(=O)CNC(=O)CCCCC[N+](C)(C)C)C(=O)N[C@@H](Cc2cccc(c2)CNC(=O)CO4)C(=O)N3)cc1` [Ex-60] the same measures were 0.00651 nM and 0.00531 nM.
For `COc1ccc(C[C@@H]2NC(=O)[C@H]([C@@H](C)O)NC(=O)[C@@H]3[C@@H]4CCN3C(=O)[C@@H]3Cc5cn(c6ccc(F)cc56)CCCCCCN(Cc5ccc(cc5)CCNC(=O)[C@]5(C)CCCN5C2=O)C(=O)CCC(=O)N[C@@H](C)C(=O)N[C@H](CNC(=O)CCCCCCCC[N+](C)(C)C)C(=O)N[C@@H](Cc2cccc(c2)CNC(=O)CO4)C(=O)N3)cc1` [Ex-61] the same measures were 0.00747 nM and 0.00654 nM.
In general, Kd refers to the constant that tells how readily two partners part at equilibrium. As for `COc1ccc(C[C@@H]2NC(=O)[C@H](Cc3c[nH]cn3)NC(=O)[C@H](CC(=O)O)NC(=O)[C@H](Cc3c[nH]c4ccc(F)cc34)NC(=O)[C@H](Cc3c[nH]c4ccc(F)cc34)NC(=O)[C@@H](C)NC(=O)[C@H](CCCCNC(=O)CCCCCC3(C)/C(=C/C=C/C=C/C4=[N+](CCCS(=O)(=O)[O-])c5ccc(S(=O)(=O)O)cc5C4(C)C)N(CCCS(=O)(=O)O)c4ccc(S(=O)(=O)O)cc43)NC(=O)CCSCc3cccc(c3)CSC[C@@H](C(N)=O)NC(=O)[C@]3(C)CCCN3C2=O)cc1` (stereo partly drawn) [Reagent B, reference compound] ([Mpa]K(X1)[dA][Trp(5-F)][Trp(5-F)]DHY(Me)[αMeP]C-NH2; linker 1-10 via mXylylene), the Kd in assay [1] (probe of the Alexa FRET Plus assay) was determined as 35 nM; in assay [2] (probe of the Alexa FRET Ultra assay) it was 0.99 nM.

The record behind these values is patent US12209145B2, “PCSK9 antagonist compounds” (Merck Sharp & Dohme LLC, priority 2018, dated 2025).
